In patent publication US20080255060A1, “Ester Linked Macrolides Useful For The Treatment of Microbial Infections” (priority 2004, published 2008):

How the values were obtained:
Assay in all cases: MIC, standard microtiter broth serial dilution test
Assay type in all cases: cell-based
[1] = tested on: S. aureus Smith ATCC 0329; conditions: Staphylococcus aureus, ATCC0329
S. pneumoniae 0541 = conditions: Streptococcus pneumoniae
S. pyogenes 0542 = conditions: Streptococcus pyogenes
E. faecalis ATCC 0004 = conditions: Enterococcus faecalis, ATCC0004
[2] = tested on: erythromycin resistant strains of Streptococcus pneumoniae
[3] = tested on: erythromycin resistant strains of Streptococcus pyogenes
H. influenzae ATCC 0529 = conditions: Haemophilus influenzae, ATCC0529
M. catarrhalis ATCC 0324 = conditions: Moraxella catarrhalis, ATCC0324

Row | MIC [1] [µg/mL] | MIC (S. pneumoniae 0541) [µg/mL] | MIC (S. pyogenes 0542) [µg/mL] | MIC (E. faecalis ATCC 0004) [µg/mL] | MIC [2] [µg/mL] | MIC [3] [µg/mL] | MIC (H. influenzae ATCC 0529) [µg/mL] | MIC (M. catarrhalis ATCC 0324) [µg/mL] | Compound
1 | ≤ 1 | ≤ 1 | ≤ 1 | ≤ 1 | ≤ 0.25 | ≤ 0.25 | – | – | CC[C@H]1OC(=O)[C@H](C)[C@@H](O[C@H]2C[C@@](C)(OC)[C@@H](OC(=O)CCOCCOCCNc3cc4c(=O)c(C(=O)O)cn(C5CC5)c4cc3Cl)[C@H](C)O2)[C@H](C)[C@@H](O[C@@H]2O[C@H](C)C[C@H](N(C)C)[C@H]2O)[C@](C)(O)C[C@@H](C)/C(=N\OCOCCOC)[C@H](C)[C@@H](O)[C@]1(C)O [Example 6, 4″-O-(3-{2-[2-(3-Carboxy-7-chloro-1-cyclopropyl-4-oxo-1,4-dihydro-quinolin-6-ylamino)-ethoxy]-ethoxy}-propionyl)-roxythromycin]
2 | ≤ 1 | ≤ 1 | ≤ 1 | ≤ 1 | ≤ 0.25 | ≤ 0.25 | ≤ 2 | ≤ 2 | CC[C@H]1OC(=O)[C@H](C)[C@@H](O[C@H]2C[C@@](C)(OC)[C@@H](OC(=O)CCOCCOCCNc3cc4c(=O)c(C(=O)O)cn(C5CC5)c4cc3Cl)[C@H](C)O2)[C@H](C)[C@@H](O[C@@H]2O[C@H](C)C[C@H](N(C)C)[C@H]2O)[C@](C)(O)C[C@@H](C)CN(C)[C@H](C)[C@@H](O)[C@]1(C)O [Example 8, 4″-O-(3-{2-[2-(3-Carboxy-7-chloro-1-cyclopropyl-4-oxo-1,4-dihydro-quinolin-6-ylamino)-ethoxy]-ethoxy}-propionyl)-azithromycin]
3 | ≤ 1 | ≤ 1 | ≤ 1 | ≤ 1 | ≤ 0.25 | ≤ 0.25 | ≤ 2 | ≤ 2 | CC[C@H]1OC(=O)[C@H](C)[C@@H](O[C@H]2C[C@@](C)(OC)[C@@H](OC(=O)CCOCCOCCNc3ccc4c(c3)c(=O)c(C(=O)O)cn4C3CC3)[C@H](C)O2)[C@H](C)[C@@H](O[C@@H]2O[C@H](C)C[C@H](N(C)C)[C@H]2O)[C@](C)(O)C[C@@H](C)CN(C)[C@H](C)[C@@H](O)[C@]1(C)O [Example 11, 4″-O-(3-{2-[2-(3-Carboxy-1-cyclopropyl-4-oxo-1,4-dihydro-quinolin-6-ylamino)-ethoxy]-ethoxy}-propionyl)-azithromycin]
4 | ≤ 1 | ≤ 1 | ≤ 1 | ≤ 1 | ≤ 0.25 | ≤ 0.25 | ≤ 2 | ≤ 2 | CCO/N=C1\[C@H](C)C[C@@](C)(O)[C@H](O[C@@H]2O[C@H](C)C[C@H](N(C)C)[C@H]2O)[C@@H](C)[C@H](OC2C[C@@](C)(OC)[C@@H](OC(=O)CCOCCOCCNc3cc4c(=O)c(C(=O)O)cn(C5CC5)c4cc3Cl)[C@H](C)O2)[C@@H](C)C(=O)O[C@H](CC)[C@@](C)(O)[C@H](O)[C@H]1C (stereo partly drawn) [Example 19, 4″-O-(3-{2-[2-(3-Carboxy-7-chloro-1-cyclopropyl-4-oxo-1,4-dihydro-quinolin-6-ylamino)-ethoxy]-ethoxy}-propionyl)-9(E)-ethoxyimino-erythromycin A]
5 | ≤ 1 | ≤ 1 | ≤ 1 | ≤ 1 | ≤ 0.25 | ≤ 0.25 | ≤ 2 | ≤ 2 | CC[C@H]1OC(=O)[C@H](C)[C@@H](O[C@H]2C[C@@](C)(OC)[C@@H](OC(=O)CCOCCOCCNc3ccc4c(c3)c(=O)c(C(=O)O)cn4CC)[C@H](C)O2)[C@H](C)[C@@H](O[C@@H]2O[C@H](C)C[C@H](N(C)C)[C@H]2O)[C@](C)(O)C[C@@H](C)CN(C)[C@H](C)[C@@H](O)[C@]1(C)O [Example 30, 4″-O-(3-{2-[2-(3-Carboxy-1-ethyl-4-oxo-1,4-dihydro-quinoline-6-ylamino)-ethoxy]-ethoxy}-propionyl)-azithromycin]
6 | ≤ 1 | ≤ 1 | ≤ 1 | ≤ 1 | ≤ 0.25 | ≤ 0.25 | ≤ 2 | ≤ 2 | CC[C@H]1OC(=O)[C@H](C)[C@@H](O[C@H]2C[C@@](C)(OC)[C@@H](OC(=O)CCOCCOCCNc3cc4c(=O)c(C(=O)O)cn(C(C)C)c4cc3Cl)[C@H](C)O2)[C@H](C)[C@@H](O[C@@H]2O[C@H](C)C[C@H](N(C)C)[C@H]2O)[C@](C)(O)C[C@@H](C)CN(C)[C@H](C)[C@@H](O)[C@]1(C)O [Example 31, 4″-O-(3-{2-[2-(3-carboxy-7-chloro-1-isopropyl-4-oxo-1,4-dihydro-quinoline-6-ylamino)-ethoxy]-ethoxy}-propionyl)-azithromycin]
7 | ≤ 1 | ≤ 1 | ≤ 1 | ≤ 1 | ≤ 0.25 | ≤ 0.25 | ≤ 2 | ≤ 2 | CC[C@H]1OC(=O)[C@H](C)[C@@H](OC2C[C@@](C)(OC)[C@@H](OC(=O)CCOCCOCCNc3cc4c5c(c3)c(=O)c(C(=O)O)cn5CCC4)[C@H](C)O2)[C@H](C)[C@@H](O[C@@H]2O[C@H](C)C[C@H](N(C)C)[C@H]2O)[C@](C)(O)C[C@@H](C)CN(C)[C@H](C)[C@@H](O)[C@]1(C)O (stereo partly drawn) [Example 32, 4″-O-(3-{2-[2-(6-Carboxy-7-oxo-2,3-dihydro-1H,7H-pyrido[3,2,1-ij]quinolin-9-ylamino)-ethoxy]-ethoxy}-propionyl)-azithromycin]
8 | ≤ 1 | ≤ 1 | ≤ 1 | ≤ 1 | ≤ 0.25 | ≤ 0.25 | ≤ 2 | ≤ 2 | CC[C@H]1OC(=O)[C@H](C)[C@@H](O[C@H]2C[C@@](C)(OC)[C@@H](OC(=O)CCOCCOCCNc3cc4c5c(c3)c(=O)c(C(=O)O)cn5CCC4)[C@H](C)O2)[C@H](C)[C@@H](O[C@@H]2O[C@H](C)C[C@H](N(C)C)[C@H]2O)[C@](C)(OC)C[C@@H](C)C(=O)[C@H](C)[C@@H](O)[C@]1(C)O [Example 33, 4″-O-(3-{2-[2-(6-Carboxy-7-oxo-2,3-dihydro-1H,7H-pyrido[3,2,1-ij]quinolin-9-ylamino)-ethoxy]-ethoxy}-propionyl)-6-O-methyl-erythromycin A]
9 | ≤ 1 | ≤ 1 | ≤ 1 | ≤ 1 | ≤ 0.25 | ≤ 0.25 | ≤ 2 | ≤ 2 | CC[C@H]1OC(=O)[C@H](C)[C@@H](OC2C[C@@](C)(OC)[C@@H](OC(=O)CCNCCOCCCc3ccc4c(c3)c(=O)c(C(=O)O)cn4CC)[C@H](C)O2)[C@H](C)[C@@H](OC2O[C@H](C)C[C@H](N(C)C)[C@H]2O)[C@](C)(OC)C[C@@H](C)C(=O)[C@H](C)[C@@H](O)[C@]1(C)O (stereo partly drawn) [Example 37, 4″-O-(3-{2-[3-(3-Carboxy-1-ethyl-4-oxo-1,4-dihydro-quinolin-6-yl)-propoxy]-ethylamino}-propionyl)-6-O-methyl-erythromycin A]
10 | ≤ 1 | ≤ 1 | ≤ 1 | ≤ 1 | ≤ 0.25 | ≤ 0.25 | ≤ 2 | ≤ 2 | CC[C@H]1OC(=O)[C@H](C)[C@@H](O[C@H]2C[C@@](C)(OC)[C@@H](OC(=O)CCOCCOCCCc3ccc4c(c3)c(=O)c(C(=O)O)cn4CC)[C@H](C)O2)[C@H](C)[C@@H](OC2O[C@H](C)C[C@H](N(C)C)[C@H]2O)[C@](C)(O)C[C@@H](C)CN(C)[C@H](C)[C@@H](O)[C@]1(C)O (stereo partly drawn) [Example 49, 4″-O-(3-{2-[3-(3-carboxy-1-ethyl-4-oxo-1,4-dihydro-quinolin-6-yl)-propoxy]-ethoxy}-propionyl)-azithromycin]
11 | – | – | – | – | ≤ 0.25 | ≤ 0.25 | – | – | CCO/N=C1\[C@H](C)C[C@@](C)(O)[C@H](OC2O[C@H](C)C[C@H](N(C)C)[C@H]2O)[C@@H](C)[C@H](OC2C[C@@](C)(OC)[C@@H](OC(=O)CCOCCOCCCc3ccc4c(c3)c(=O)c(C(=O)O)cn4CC)[C@H](C)O2)[C@@H](C)C(=O)O[C@H](CC)[C@@](C)(O)[C@H](O)[C@H]1C (stereo partly drawn) [Example 52, 9-Ethyloximino-4″-O-(3-{2-[3-(3-carboxy-1-ethyl-4-oxo-1,4-dihydro-quinolin-6-yl)-propoxy]-ethoxy}-propionyl)-erythromycin A]
12 | ≤ 1 | ≤ 1 | ≤ 1 | ≤ 1 | ≤ 0.25 | ≤ 0.25 | ≤ 2 | ≤ 2 | CC[C@H]1OC(=O)[C@H](C)[C@@H](O[C@H]2C[C@@](C)(OC)[C@@H](OC(=O)CCOCCOCCOc3cc4c(=O)c(C(=O)O)cn(C5CC5)c4cc3Cl)[C@H](C)O2)[C@H](C)[C@@H](O[C@@H]2O[C@H](C)C[C@H](N(C)C)[C@H]2O)[C@](C)(O)C[C@@H](C)CN(C)[C@H](C)[C@@H](O)[C@]1(C)O [Example 55, 4″-O-(3-{2-[2-(3-Carboxy-7-chloro-1-cyclopropyl-4-oxo-1,4-dihydro-quinolin-6-yloxy)-ethoxy]-ethoxy}-propionyl)-azithromycin]
13 | ≤ 1 | ≤ 1 | ≤ 1 | ≤ 1 | ≤ 0.25 | ≤ 0.25 | ≤ 2 | ≤ 2 | CC[C@H]1OC(=O)[C@H](C)[C@@H](O[C@H]2C[C@@](C)(OC)[C@@H](OC(=O)CCNCCOCCOCCNc3cc4c(=O)c(C(=O)O)cn(C5CC5)c4cc3Cl)[C@H](C)O2)[C@H](C)[C@@H](O[C@@H]2O[C@H](C)C[C@H](N(C)C)[C@H]2O)[C@](C)(O)C[C@@H](C)CN(C)[C@H](C)[C@@H](O)[C@]1(C)O [Example 65, 4″-O-[3-(2-{2-[2-(3-Carboxy-7-chloro-1-cyclopropyl-4-oxo-1,4-dihydro-quinolin-6-ylamino)-ethoxy]-ethoxy}-ethylamino)-propionyl]-azithromycin]
